Source: BigSolDB 2.1

O=C(O)C(O)c1ccccc1 (racemic)
Conditions	solubility (mole fraction)
in ethanol, 294.65 K	0.247
in ethanol, 299.45 K	0.261
in ethanol, 303.85 K	0.274
in ethanol, 308.25 K	0.292
in ethanol, 314.65 K	0.325
in ethanol, 319.15 K	0.349
in ethanol, 324.85 K	0.376
in ethanol, 328.55 K	0.394
in ethanol, 333.45 K	0.418
in ethanol, 338.15 K	0.439
in isopropanol, 293.15 K	0.213
in isopropanol, 298.15 K	0.236
in isopropanol, 305.15 K	0.262
in isopropanol, 308.15 K	0.272
in isopropanol, 313.15 K	0.294
in isopropanol, 318.15 K	0.315
in isopropanol, 323.15 K	0.338
in isopropanol, 328.15 K	0.362
in isopropanol, 333.15 K	0.383
in isopropanol, 338.15 K	0.41
in methanol, 283.15 K	0.236
in methanol, 288.15 K	0.243
in methanol, 293.15 K	0.256
in methanol, 298.15 K	0.265
in methanol, 304.65 K	0.281
in methanol, 308.15 K	0.293
in methanol, 313.15 K	0.308
in methanol, 318.15 K	0.323
in n-propanol, 293.15 K	0.196
in n-propanol, 298.15 K	0.213
in n-propanol, 305.35 K	0.237
in n-propanol, 308.15 K	0.252
in n-propanol, 313.15 K	0.275
in n-propanol, 318.15 K	0.3
in n-propanol, 323.15 K	0.325
in n-propanol, 328.15 K	0.347
in n-propanol, 333.15 K	0.368
in n-propanol, 338.15 K	0.39
in water, 293.15 K	0.018
in water, 298.15 K	0.0233
in water, 303.15 K	0.037
in water, 308.15 K	0.0656
in water, 313.15 K	0.11
in water, 318.15 K	0.16
in water, 323.15 K	0.206
in water, 328.15 K	0.237
in water, 333.15 K	0.278
in water, 338.15 K	0.317
